Data published in PubChem BioAssay AID1919005 (Molecular Pharmacology Branch, DTP, NCI, 2023).
Several values for one entry are separate records, joined by “and”; a condition that tells them apart may be missing. Equal entries are not always repeated.

System: 855422-203-R-J1-PDC complex spheroid growth
Assay: Anticancer human tumor 855422-203-R-J1-PDC patient-derived bladder carcinoma cell line growth inhibition [AhR]
Conditions: for viability, T/C: stronger effect = lower value
Outline: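 Spheroids combined tumor cells with HUVEC endothelial cells and human MSCs as stroma. AhR antagonists were paired with standard or investigational drugs, each dosed in half-log steps down from near clinical Cmax, or from 10 microM where Cmax was unknown.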

[1] = curve of first compound, second compound 0.1 µM
[2] = curve of first compound, second compound 0.316 µM
[3] = curve of first compound, second compound 1 µM
[4] = curve of first compound, second compound 3.16 µM
[5] = curve of first compound, second compound 10 µM
[6] = second compound 0.1 µM, first compound 0.0316 µM
[7] = second compound 0.1 µM, first compound 0.1 µM
[8] = second compound 0.1 µM, first compound 0.316 µM
[9] = second compound 0.1 µM, first compound 1 µM
[10] = second compound 0.1 µM, first compound 3.16 µM
[11] = second compound 0.1 µM, first compound 10 µM
[12] = second compound 0.316 µM, first compound 0.0316 µM
[13] = second compound 0.316 µM, first compound 0.1 µM
[14] = second compound 0.316 µM, first compound 0.316 µM
[15] = second compound 0.316 µM, first compound 1 µM
[16] = second compound 0.316 µM, first compound 3.16 µM
[17] = second compound 0.316 µM, first compound 10 µM
[18] = second compound 1 µM, first compound 0.0316 µM
[19] = second compound 1 µM, first compound 0.1 µM
[20] = second compound 1 µM, first compound 0.316 µM
[21] = second compound 1 µM, first compound 1 µM
[22] = second compound 1 µM, first compound 3.16 µM
[23] = second compound 1 µM, first compound 10 µM
[24] = second compound 3.16 µM, first compound 0.0316 µM
[25] = second compound 3.16 µM, first compound 0.1 µM
[26] = second compound 3.16 µM, first compound 0.316 µM
[27] = second compound 3.16 µM, first compound 1 µM
[28] = second compound 3.16 µM, first compound 3.16 µM
[29] = second compound 3.16 µM, first compound 10 µM
[30] = second compound 10 µM, first compound 0.0316 µM
[31] = second compound 10 µM, first compound 0.1 µM
[32] = second compound 10 µM, first compound 0.316 µM
[33] = second compound 10 µM, first compound 1 µM
[34] = second compound 10 µM, first compound 3.16 µM
[35] = second compound 10 µM, first compound 10 µM
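Also: spheroids exposed to agents for seven days before readout.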
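For viability, T/C in this document: percent of DMSO vehicle control luminescence viability.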

SMILES: O=C(c1cc(Cc2n[nH]c(=O)c3ccccc23)ccc1F)N1CCN(C(=O)C2CC2)CC1 + Cc1cncc(-c2nc(NCCc3c[nH]c4ccccc34)c3ncn(C(C)C)c3n2)c1
- IC50 [1]: > 10000 nM
- IC50 [2]: > 10000 nM
- IC50 [3]: > 10000 nM
- IC50 [4]: > 10000 nM
- IC50 [5]: < 31.6 nM
- viability, T/C [6]: 106%
- viability, T/C [7]: 102%
- viability, T/C [8]: 99.6%
- viability, T/C [9]: 103%
- viability, T/C [10]: 108%
- viability, T/C [11]: 90.9%
- viability, T/C [12]: 102%
- viability, T/C [13]: 109%
- viability, T/C [14]: 101%
- viability, T/C [15]: 93.7%
- viability, T/C [16]: 101%
- viability, T/C [17]: 86.7%
- viability, T/C [18]: 98.2%
- viability, T/C [19]: 93%
- viability, T/C [20]: 103%
- viability, T/C [21]: 87.9%
- viability, T/C [22]: 94.7%
- viability, T/C [23]: 89.5%
- viability, T/C [24]: 78.6%
- viability, T/C [25]: 83.6%
- viability, T/C [26]: 75.9%
- viability, T/C [27]: 71.2%
- viability, T/C [28]: 89.8%
- viability, T/C [29]: 78.6%
- viability, T/C [30]: 16.8%
- viability, T/C [31]: 12.5%
- viability, T/C [32]: 7.7%
- viability, T/C [33]: 3.22%
- viability, T/C [34]: 6.34%
- viability, T/C [35]: 5.85%

SMILES: CCc1c2c(nc3ccc(O)cc13)-c1cc3c(c(=O)n1C2)COC(=O)[C@]3(O)CC
- viability, T/C (compound 0.000949 µM): 96.8% and 105% and 92.3%
- viability, T/C (compound 0.003 µM): 83.7% and 99.2% and 88.8%
- viability, T/C (compound 0.00949 µM): 44.9% and 86.1% and 49.6%
- viability, T/C (compound 0.03 µM): 14.9% and 32.5% and 16.6%
- viability, T/C (compound 0.0949 µM): 8.05% and 16.5% and 9.46%
- viability, T/C (compound 0.3 µM): 5.61% and 9.17% and 5.63%
- IC50 (curve of compound): 8.17 nM and 20.7 nM and 9.7 nM

SMILES: COc1ccc([C@@H](O)c2cc(-c3ncnc4cc(N5CCOCC5)ccc34)c(F)cc2Cl)nn1 + Cc1cncc(-c2nc(NCCc3c[nH]c4ccccc34)c3ncn(C(C)C)c3n2)c1
- IC50 [1]: > 10000 nM
- IC50 [2]: 9440 nM
- IC50 [3]: 6090 nM
- IC50 [4]: 2410 nM
- IC50 [5]: < 31.6 nM
- viability, T/C [6]: 101%
- viability, T/C [7]: 90.6%
- viability, T/C [8]: 93.7%
- viability, T/C [9]: 83.8%
- viability, T/C [10]: 76.7%
- viability, T/C [11]: 50.9%
- viability, T/C [12]: 97.1%
- viability, T/C [13]: 88.6%
- viability, T/C [14]: 77.2%
- viability, T/C [15]: 86.8%
- viability, T/C [16]: 74.5%
- viability, T/C [17]: 47.8%
- viability, T/C [18]: 90.5%
- viability, T/C [19]: 94.6%
- viability, T/C [20]: 79.9%
- viability, T/C [21]: 74.5%
- viability, T/C [22]: 69.1%
- viability, T/C [23]: 37.6%
- viability, T/C [24]: 79.5%
- viability, T/C [25]: 85.6%
- viability, T/C [26]: 67.2%
- viability, T/C [27]: 54.7%
- viability, T/C [28]: 52.6%
- viability, T/C [29]: 27.9%
- viability, T/C [30]: 6.06%
- viability, T/C [31]: 3.37%
- viability, T/C [32]: 1.79%
- viability, T/C [33]: 0.4%
- viability, T/C [34]: 6.5%
- viability, T/C [35]: 9.38%

SMILES: Cn1ncnc1C1c2n[nH]c(=O)c3cc(F)cc(c23)NC1c1ccc(F)cc1 (configuration not stated) + CC(CO)NC(=O)c1cc(-c2ccc(Cl)cc2)nn(-c2cnn(C)c2)c1=O
- IC50 [1]: > 100 nM
- IC50 [2]: > 100 nM
- IC50 [3]: > 100 nM
- IC50 [4]: > 100 nM
- IC50 [5]: > 100 nM
- viability, T/C (second compound 0.1 µM, first compound 0.000316 µM): 93.4%
- viability, T/C (second compound 0.1 µM, first compound 0.001 µM): 96.2%
- viability, T/C (second compound 0.1 µM, first compound 0.00316 µM): 99.3%
- viability, T/C (second compound 0.1 µM, first compound 0.01 µM): 92.4%
- viability, T/C [6]: 105%
- viability, T/C [7]: 84.9%
- viability, T/C (second compound 0.316 µM, first compound 0.000316 µM): 96.4%
- viability, T/C (second compound 0.316 µM, first compound 0.001 µM): 104%
- viability, T/C (second compound 0.316 µM, first compound 0.00316 µM): 98.6%
- viability, T/C (second compound 0.316 µM, first compound 0.01 µM): 107%
- viability, T/C [12]: 100%
- viability, T/C [13]: 89.3%
- viability, T/C (second compound 1 µM, first compound 0.000316 µM): 109%
- viability, T/C (second compound 1 µM, first compound 0.001 µM): 105%
- viability, T/C (second compound 1 µM, first compound 0.00316 µM): 96.2%
- viability, T/C (second compound 1 µM, first compound 0.01 µM): 109%
- viability, T/C [18]: 99%
- viability, T/C [19]: 107%
- viability, T/C (second compound 3.16 µM, first compound 0.000316 µM): 101%
- viability, T/C (second compound 3.16 µM, first compound 0.001 µM): 107%
- viability, T/C (second compound 3.16 µM, first compound 0.00316 µM): 102%
- viability, T/C (second compound 3.16 µM, first compound 0.01 µM): 103%
- viability, T/C [24]: 105%
- viability, T/C [25]: 110%
- viability, T/C (second compound 10 µM, first compound 0.000316 µM): 105%
- viability, T/C (second compound 10 µM, first compound 0.001 µM): 102%
- viability, T/C (second compound 10 µM, first compound 0.00316 µM): 95.4%
- viability, T/C (second compound 10 µM, first compound 0.01 µM): 103%
- viability, T/C [30]: 106%
- viability, T/C [31]: 94%
